Measurements reported in patent US8212024B2, “Crystalline sodium salt of cephalosporin antibiotic” (Orchid Chemicals & Pharmaceuticals Ltd., priority 2005, dated 2012).

What was measured:
Assay type in all cases: physicochemical
[1] = Stability at 40 ± 2° C. & 75 ± 5% RH; settings: for Assay: in % (unit assumed)
From the text: (§1) The following Tables (Table 2 & 3) provide stability data of crystalline Ceftiofur Sodium prepared according to this invention. From this it table it is evident that the crystalline Ceftiofur Sodium prepared according this invention is a very stable and a highly pure material, which is clearly indicated by total RS (Related substances) analysis & the stability data. [table]

[2] = Stability at 25 ± 2° C. & 60 ± 5% RH; settings: for Assay: in % (unit assumed)
From the text: as §1

[3] = Comparison of physical characteristics: tapped bulk density
From the text: The following Table provides a comparison of physical characteristics of amorphous and crystalline Ceftiofur Sodium. From this table it is evident that the crystalline Ceftiofur Sodium has better physical characteristics than amorphous material. [table]

[4] = Hygroscopicity observation
From the text: Apart from the conventional formulation that are described the Ceftiofur sodium formulation may also contain chelating agent like ethylene diamine tetraacetic acid (EDTA) or a buffer like sodium citrate along with or with out conventional excipient. The pharmaceutical composition may also contain amorphous Ceftiofur sodium along with crystalline Ceftiofur sodium.

Row | Structure (SMILES) | Total RS (Related substances) ([1]; 2 month) [%] | Assay ([1]; 2 month) | Total RS (Related substances) ([1]; 15 days) [%] | Assay ([1]; 15 days) | Total RS (Related substances) ([1]; Initial) [%] | Assay ([1]; Initial) | Total RS (Related substances) ([2]; 1 month) [%] | Assay ([2]; 1 month) | Total RS (Related substances) ([2]; 2 month) [%] | Assay ([2]; 2 month) | Total RS (Related substances) ([2]; Initial) [%] | Assay ([2]; Initial) | Tapped Bulk density [3] [g/mL] | Hygroscopic nature [4]
1 | CO/N=C(\C(=O)NC1C(=O)N2C(C(=O)[O-])=C(CSC(=O)c3ccco3)CSC12)c1csc(N)n1.[Na+] (centres unmarked) [Crystalline Ceftiofur sodium, Ceftiofur sodium] | 0.93 | 100.61 | 0.78 | 100.64 | 0.61 | 101.25 | 0.75 | 101.18 | 0.78 | 100.31 | 0.61 | 101.25 | 0.8 | non-hygroscopic
2 | CO/N=C(\C(=O)NC1C(=O)N2C(C(=O)[O-])=C(CSC(=O)c3ccco3)CSC12)c1csc(N)n1.[Na+] (centres unmarked) [Amorphous Ceftiofur sodium, Ceftiofur sodium, reference compound] |  |  |  |  |  |  |  |  |  |  |  |  | 0.5 | highly hygroscopic
3 | CO/N=C(\C(=O)N[C@@H]1C(=O)N2C(C(=O)[O-])=C(CSC(=O)c3ccco3)CS[C@H]12)c1csc(N)n1.[Na+] [Ceftiofur sodium] |  |  |  |  |  |  |  |  |  |  |  |  |  | non-hygroscopic
